In patent US8501166B2, “Pyrimidinyl indole compounds” (Hutchison Medipharma Limited, priority 2010, dated 2013):
Counter-ions that a name gives are not always drawn. Like-named read-outs stand apart in the source and are kept apart here.

How the values were obtained:
Skov3-luc cells = test: Cell viability test, combination study, Skov3-luc; assay type: cell-based; details: Homo sapiens, 72 h, read-out: Ave. Inhibition rate
Procedure: To evaluate biological activity of a compound in vitro, the cell viability test is applied, in which, IKKβ receptor plays an important role in cell survival and proliferation. Once the IKKβ pathway is blocked by inhibitors, a cell can go through apoptosis or death. The cell viability test provides information on cell survival after treatment with IKK inhibitors.
BxPC-3 cells (ATCC #CRL-1687; human pancreatic cancer cell line) are grown in Roswell Park Memorial Institute (RPMI) 1640 media (Gibco #A10491-01) supplemented with 10% fetal bovine serum (FBS) (Gibco #10099-141). Skov3-luc cells (ATCC, human ovarian carcinoma cell line) are grown in McCoy's 5a medium (Gibco#16600) supplemented with 10% FBS (Gibco#10099-141). For compound testing, BxPc-3 and Skov3-Luc cells are seeded at 2000 and 5000 cells/well respectively in 100 μL of corresponding media specified above for each cell line in 96-well plates 20 h prior to treatment. Cells are treated with a test compound at eight different concentrations in the presence of 0.5% DMSO for 72 h. Cell death in each well is determined by the addition of 20 μL of the One Solution Reagent (CELLTITER 96® AQueous One Solution Cell Proliferation Assay, Promega #G3580). After 2-4 h of incubation at 37° C., optical densities at 492 nm are measured with a microplate reader Inhibition of cell viability is determined by comparison to the control cells treated in the absence of a test compound.
For the combination study of the compound with other antitumor agents, BxPc-3 and Skov3-Luc cells are seeded at 2000 and 5000 cells/well respectively in 100 μL corresponding media specified above for each cell line in 96-well plates 20 h prior to the treatment. […] Cell death in each well is determined by the addition of 20 μL of the One Solution Reagent (CELLTITER 96® AQueous One Solution Cell Proliferation Assay, Promega #G3580). After 2-4 h of incubation at 37° C., optical densities at 492 nm are measured with a microplate reader Inhibition of cell viability is determined by comparison to the control cells treated in the absence of a test compound. […]

[1] = system: SKOV-3x-FF-luci human ovarian cancer xenograft; test: Anti-tumor effects in SKOV-3x-FF-luci xenograft (21 days); assay type: in vivo, Balb/c nu/nu mice; details: 60 mg/kg, tid, q6 h, oral
Procedure: Anti-tumor Effects in Human Ovarian Cancer SKOV-3x-FF-luci Xenograft SKOV-3x-FF-luci human ovarian cancer line cell line (ATCC) is cultured in McCoy's 5a medium containing 10% fetal calf serum (FCS). Female Balb/c nu/nu mice (6-8 weeks old) are peritoneally injected with 0.2 mL of cell suspension containing 2×10^6 cells. Mice are divided into five groups six days after cell implantation. The test compound at doses of 60, 90 and 150 mg/kg is orally administered to animals for a consecutive 21 days with a twice a day (bid) or three times a day (tid) regimen. Mice in control groups are administered the vehicle (10% Acacia at pH 2.1, bid). At the end of the treatment, all mice are euthanized with CO2 and tumors in the peritoneal cavity, diaphragmatic muscle, mesenterium, liver, spleen, and ovaries are dissected and harvested, and put together for the measurement of their combined weight. Results of tumor weight and inhibition rate (IR) are evaluated. The inhibition rate is calculated with the formula: IR %=(tumor weight in control−tumor weight in drug treated)/tumor weight in control×100%.

IKKβ = biological target: T1, IKKβ (Homo sapiens, UniProt O14920); test: IKKβ kinase assay (Z′-LYTE Assay Kit-Ser/Thr 5 Peptide); assay type: biochemical
T1 sequence (O14920 1-756): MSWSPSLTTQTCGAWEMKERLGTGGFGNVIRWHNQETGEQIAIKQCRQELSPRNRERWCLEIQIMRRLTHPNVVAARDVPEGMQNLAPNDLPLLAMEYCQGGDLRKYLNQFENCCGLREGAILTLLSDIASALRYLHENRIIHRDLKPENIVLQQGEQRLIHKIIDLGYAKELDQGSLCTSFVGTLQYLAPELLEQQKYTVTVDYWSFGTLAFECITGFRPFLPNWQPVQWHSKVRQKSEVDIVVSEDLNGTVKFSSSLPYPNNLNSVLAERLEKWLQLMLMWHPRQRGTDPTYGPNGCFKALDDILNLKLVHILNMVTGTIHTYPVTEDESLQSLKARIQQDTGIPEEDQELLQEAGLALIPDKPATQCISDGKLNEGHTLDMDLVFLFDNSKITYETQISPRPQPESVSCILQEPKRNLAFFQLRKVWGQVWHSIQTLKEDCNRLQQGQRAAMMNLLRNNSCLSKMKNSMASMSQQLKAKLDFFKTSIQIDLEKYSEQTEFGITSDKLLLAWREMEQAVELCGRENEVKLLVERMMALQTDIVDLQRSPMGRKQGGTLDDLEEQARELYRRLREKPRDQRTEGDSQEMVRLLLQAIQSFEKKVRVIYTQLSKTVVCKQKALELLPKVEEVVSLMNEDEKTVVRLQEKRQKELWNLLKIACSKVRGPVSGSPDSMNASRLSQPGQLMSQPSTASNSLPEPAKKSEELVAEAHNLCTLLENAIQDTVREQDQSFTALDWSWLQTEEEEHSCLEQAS
Procedure: Alternately, the IKKβ kinase assay is performed in vitro using a Z′-LYTE™ Assay Kit-Ser/Thr 5 Peptide (Invitrogen, Cat.No. PV3178). All reactions (20 μL) are started by adding 0.8 μL of the test compound in a DMSO solution, 10 μL of Kinase/Peptide Mixture or Phospho-Peptide solution (Invitrogen, Cat.No. PV3219, diluted with 1.33× Kinase Buffer), 5 μL of 1.33× Kinase Buffer (Invitrogen, Cat.No. PV3189, 5× diluted with distilled water) or ATP Solution (5 μM), and 4.2 μL of distilled water. The 384-well assay plate (Corning, Cat.No. 3575) is mixed and incubated at room temperature for 1 hour. 10 μL of the Development Solution [Development Reagent B (Invitrogen, Cat.No. PV3296)/Development Buffer (Invitrogen, Cat.No. PV3127)=1:128] is then added to each well, mixed and incubated at room temperature for another 1 h. The kinase reaction is then stopped by adding 10 μL of the Stop Reagent (Invitrogen, Cat.No. PV3094), and the plate is read with a Wallac 1420 VICTOR^3 Multilabel Counter (PERKIN ELMER™) at 445 nm and 520 nm fluorescence. The assay has an MSR of 2.14. The compound is initially tested at 8 concentrations (10 μM) to 0.003 μM) using a 1:3 serial dilution scheme.

Structure (SMILES)	inhibition at 12.5 µM (Skov3-luc cells; Example 1 12.5 μM alone)	inhibition at 12.5 µM (Skov3-luc cells; Vincristine 0.25 μM + Example 1 12.5 μM)	Tumor Weight (g) (Mean ± S.D.) [1]	IR (tumor inhibition rate) ([1]; hydrochloride)	IC50 (IKKβ)
O=C(NC1CC1)c1cccc2[nH]c(-c3nc(N[C@@H]4CCC[C@@H]4O)ncc3Cl)cc12 [Example 1, 2-{5-Chloro-2-[(1R,2S)-2-hydroxycyclopentylamino]pyrimidin-4-yl}-N-cyclopropyl-1H-indole-4-carboxamide hydrochloride]	21.8%	82.3%	0.509 ± 0.193 g	76.31%	
Cl.O=C(NC1CC1)c1cccc2[nH]c(-c3nc(N[C@@H]4CCC[C@H]4O)ncc3Cl)cc12 [Example 2, 2-{5-Chloro-2-[(1R,2R)-2-hydroxycyclopentylamino]pyrimidin-4-yl}-N-cyclopropyl-1H-indole-4-carboxamide hydrochloride]					0.0581 µM
